From patent US8183279B2, “1,3-dihydroisoindole derivatives” (Merck Patent Gesellschaft Mit Beschrankter Haftung, priority 2007, dated 2012)

Biological target: T1, Recombinant human HSP90α (Homo sapiens, UniProt P07900)
T1 construct: host or cells: E. coli
Test: HSP90 inhibition, [3H]17AAG radioligand filter binding test
Details: competition with 0.08 μM [3H]17AAG, HSP90 1.5 μg/assay, 22° C., 30 min
Text: The binding of geldanamycin or 17-allylamino-17-demethoxygeldanamycin (17AAG) to HSP90 and competitive inhibition thereof can be utilised in order to determine the inhibitory activity of the compounds according to the invention (Carreras et al. 2003, Chiosis et al. 2002).
In the specific case, a radioligand filter binding test is used. The radioligand used here is tritium-labelled 17-allylaminogeldanamycin,
[3H]17AAG. This filter binding test allows a targeted search for inhibitors which interfere with the ATP binding site.
Recombinant human HSP90α(E. coli expressed, 95% purity);
[3H]17AAG (17-allylaminogeldanamycin, [allylamino-2,3-^3H. Specific activity: 1.11×10^12 Bq/mmol (Moravek, MT-1717);
HEPES filter buffer (50 mM HEPES, pH 7.0, 5 mM MgCl2, BSA 0.01%) Multiscreen FB (1 μm) filter plate (Millipore, MAFBNOB 50).
The 96-well microtitre filter plates are firstly irrigated and coated with 0.1% of polyethylenimine.
The test is carried out under the following conditions:
Reaction temperature 22° C.
Reaction time: 30 min., shaking at 800 rpm
50 mM HEPES HCl, pH 7.0, 5 mM MgCl2, 0.01% (w/v) of BSA
At the end of the reaction, the supernatant in the filter plate is removed by suction with the aid of a vacuum manifold (Multiscreen Separation System, Millipore), and the filter is washed twice.
The filter plates are then measured in a beta counter (Microbeta, Wallac) with scintillator (Microscint 20, Packard).
“% of control” is determined from the “counts per minutes” values, and the IC-50 value of a compound is calculated therefrom.

For `CCCCN(C)C(=O)c1cc(C(=O)N2Cc3ccc(OCCN4CCOCC4)cc3C2)c(O)cc1O` [Compound A6], which IC50 is on record?
The IC50 was 0.01 to 1 µM.

Which IC50 does the source give for `CCCCN(C)C(=O)c1cc(C(=O)N2Cc3ccc(O)cc3C2)c(O)cc1O` [Compound A1, N-butyl-2,4-dihydroxy-5-(5-hydroxy-1,3-dihydroisoindole-2-carbonyl)-N-methylbenzamide] here?
The IC50 was 0.01 to 1 µM.

How did the IC50 turn out when `CCCCN(C)C(=O)c1cc(C(=O)N2Cc3ccc(OCCO)cc3C2)c(O)cc1O` [Compound A34, N-Butyl-2,4-dihydroxy-5-[5-(2-hydroxyethoxy)-1,3-dihydroisoindole-2-carbonyl]-N-methylbenzamide] was run?
The IC50 was 0.01 to 1 µM.

How did the IC50 turn out when `CCCCN(C)C(=O)c1cc(C(=O)N2Cc3ccc(OCCCNC)cc3C2)c(O)cc1O` [Compound A47, N-Butyl-2,4-dihydroxy-N-methyl-5-[5-(3-methylaminopropoxy)-1,3-dihydroisoindole-2-carbonyl]benzamide] was run?
The IC50 was 0.01 to 1 µM.

With `Cc1ccc(CN(C)C(=O)c2cc(C(=O)N3Cc4ccc(OCCN(C)C)cc4C3)c(O)cc2O)s1` [Compound A43, 5-[5-(2-Dimethylaminoethoxy)-1,3-dihydroisoindole-2-carbonyl]-2,4-dihydroxy-N-methyl-N-(5-methylthiophen-2-ylmethyl)benzamide] as the molecule, how does the IC50 read?
Its IC50 is 0.01 to 1 µM.

How did the IC50 turn out when `CNCCOc1ccc2c(c1)CN(C(=O)c1cc(C(=O)N(C)Cc3ccc(C)s3)c(O)cc1O)C2` [Compound A48, 2,4-Dihydroxy-N-methyl-5-[5-(2-methylaminoethoxy)-1,3-dihydroisoindole-2-carbonyl]-N-(5-methylthiophen-2-ylmethyl)benzamide] was run?
Its IC50 is 0.01 to 1 µM.

How did the IC50 turn out when `CCCCN(C)C(=O)c1cc(C(=O)N2Cc3ccc(OCCN(C)CC)cc3C2)c(O)cc1O` [Compound A40, N-Butyl-5-{5-[2-(ethylmethylamino)ethoxy]-1,3-dihydroisoindole-2-carbonyl}-2,4-dihydroxy-N-methylbenzamide] was run?
Its IC50 is 0.01 to 1 µM.

Which IC50 does the source give for `CCCCN(C)C(=O)c1cc(C(=O)N2Cc3ccc(OCCN(C)C)cc3C2)c(O)cc1O` [Compound A3, N-butyl-5-[5-(2-dimethylaminoethoxy)-1,3-dihydroisoindole-2-carbonyl]-2,4-dihydroxy-N-methylbenzamide] here?
Its IC50 is 0.01 to 1 µM.

For `CCCCN(C)C(=O)c1cc(C(=O)N2Cc3ccc(OCCNC)cc3C2)c(O)cc1O` [Compound A35, N-Butyl-2,4-dihydroxy-N-methyl-5-[5-(2-methylaminoethoxy)-1,3-dihydroisoindole-2-carbonyl]benzamide], which IC50 is on record?
Its IC50 is 0.01 to 1 µM.

Which IC50 does the source give for `CCCCN(C)C(=O)c1cc(C(=O)N2Cc3ccc(-c4ccccc4)cc3C2)c(O)cc1O` [Compound A38, N-Butyl-2,4-dihydroxy-N-methyl-5-(5-phenyl-1,3-dihydroisoindole-2-carbonyl)benzamide] here?
The IC50 was 0.01 to 1 µM.

For `CCCCN(C)C(=O)c1cc(C(=O)N2Cc3ccc(C(=O)N(C)C)cc3C2)c(O)cc1O` [Compound A41, N,N'-Dimethyl-2-[5-(butylmethylcarbamoyl)-2,4-dihydroxybenzoyl]-2,3-dihydro-1H-isoindole-5-carboxamide], which IC50 is on record?
The IC50 was 0.01 to 1 µM.

With `CNCCOc1ccc2c(c1)CN(C(=O)c1cc(C(=O)N(C)Cc3ccco3)c(O)cc1O)C2` [Compound A49, N-Furan-2-ylmethyl-2,4-dihydroxy-N-methyl-5-[5-(2-methylaminoethoxy)-1,3-dihydroisoindole-2-carbonyl]benzamide] as the molecule, how does the IC50 read?
The IC50 was 0.01 to 1 µM.

How did the IC50 turn out when `CCCCN(C)C(=O)c1cc(C(=O)N2Cc3ccccc3C2)c(O)cc1O` [Compound A2, N-butyl-2,4-dihydroxy-5-(1,3-dihydroisoindole-2-carbonyl)-N-methylbenzamide] was run?
The IC50 was 0.01 to 1 µM.

Which IC50 does the source give for `CCCCN(C)C(=O)c1cc(C(=O)N2Cc3ccc(OCCN4CCCCC4)cc3C2)c(O)cc1O` [Compound A8] here?
The IC50 was 0.01 to 1 µM.

How did the IC50 turn out when `CCCCN(C)C(=O)c1cc(C(=O)N2Cc3ccc(C(=O)OC)cc3C2)c(O)cc1O` [Compound A39, Methyl 2-[5-(butylmethylcarbamoyl)-2,4-dihydroxybenzoyl]-2,3-dihydro-1H-isoindole-5-carboxylate] was run?
Its IC50 is 0.01 to 1 µM.

`CN(C)CCOc1ccc2c(c1)CN(C(=O)c1cc(C(=O)N(C)Cc3ccccc3)c(O)cc1O)C2` [Compound A45, N-Benzyl-5-[5-(2-dimethylaminoethoxy)-1,3-dihydroisoindole-2-carbonyl]-2,4-dihydroxy-N-methylbenzamide] was tested. Which IC50 did it give?
Its IC50 is 0.01 to 1 µM.

For `CCCCN(C)C(=O)c1cc(C(=O)N2Cc3ccc(OCC(N)=O)cc3C2)c(O)cc1O` [Compound A32, N-Butyl-5-(5-carbamoylmethoxy-1,3-dihydroisoindole-2-carbonyl)-2,4-dihydroxy-N-methylbenzamide], which IC50 is on record?
Its IC50 is 0.01 to 1 µM.

`CN(C)CCOc1ccc2c(c1)CN(C(=O)c1cc(C(=O)N3Cc4ccccc4C3)c(O)cc1O)C2` [Compound A46, [5-(1,3-Dihydroisoindole-2-carbonyl)-2,4-dihydroxyphenyl]-[5-(2-dimethylaminoethoxy)-1,3-dihydroisoindol-2-yl]methanone] was tested. Which IC50 did it give?
The IC50 was 0.01 to 1 µM.

Which IC50 does the source give for `CCCCN(C)C(=O)c1cc(C(=O)N2Cc3ccc(OCCN4CCNCC4)cc3C2)c(O)cc1O` [Compound A7] here?
Its IC50 is 0.01 to 1 µM.

Which IC50 does the source give for `CCCCN(C)C(=O)c1cc(C(=O)N2Cc3ccc(C(N)=O)cc3C2)c(O)cc1O` [Compound A42] here?
The IC50 was 0.01 to 1 µM.

For `CCCCN(C)C(=O)c1cc(C(=O)N2Cc3ccc(OCCCC#N)cc3C2)c(O)cc1O` [Compound A33, N-Butyl-5-[5-(3-cyanopropoxy)-1,3-dihydroisoindole-2-carbonyl]-2,4-dihydroxy-N-methylbenzamide], which IC50 is on record?
The IC50 was 0.01 to 1 µM.

Which IC50 does the source give for `CN(C)CCOc1ccc2c(c1)CN(C(=O)c1cc(C(=O)N(C)Cc3ccco3)c(O)cc1O)C2` [Compound A44, 5-[5-(2-Dimethylaminoethoxy)-1,3-dihydroisoindole-2-carbonyl]-N-furan-2-ylmethyl-2,4-dihydroxy-N-methylbenzamide] here?
The IC50 was 0.01 to 1 µM.
